Our source for the inhibition values is patent publication US9133181B2, “Substituted 6-(4-hydroxy-phenyl)-1H-pyrazolo[3,4-b]pyridine derivatives as kinase inhibitors” (SANOFI, priority 2012, dated 2015).

T1 sequence (P05771 1-673 isoform P05771-2): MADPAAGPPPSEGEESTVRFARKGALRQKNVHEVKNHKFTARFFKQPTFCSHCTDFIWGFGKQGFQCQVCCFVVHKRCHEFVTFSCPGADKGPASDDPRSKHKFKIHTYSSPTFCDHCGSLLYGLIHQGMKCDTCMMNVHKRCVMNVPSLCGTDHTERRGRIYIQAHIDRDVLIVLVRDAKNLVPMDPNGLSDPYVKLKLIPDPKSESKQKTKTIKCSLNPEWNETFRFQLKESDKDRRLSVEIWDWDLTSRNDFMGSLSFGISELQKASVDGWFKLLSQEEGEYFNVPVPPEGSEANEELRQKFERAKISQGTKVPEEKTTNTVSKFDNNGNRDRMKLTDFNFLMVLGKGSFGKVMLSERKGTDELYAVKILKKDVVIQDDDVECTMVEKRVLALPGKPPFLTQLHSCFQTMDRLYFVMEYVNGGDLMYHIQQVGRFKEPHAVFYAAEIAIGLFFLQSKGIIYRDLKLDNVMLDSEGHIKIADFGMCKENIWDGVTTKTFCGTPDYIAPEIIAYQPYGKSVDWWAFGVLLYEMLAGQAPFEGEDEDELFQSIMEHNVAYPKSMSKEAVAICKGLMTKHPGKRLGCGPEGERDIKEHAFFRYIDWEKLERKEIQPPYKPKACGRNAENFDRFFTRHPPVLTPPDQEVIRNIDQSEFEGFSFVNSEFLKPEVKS

The assay concerns the target T1, human full-length recombinant PKC βII (Homo sapiens, UniProt P05771).
T1 construct: Active human full-length recombinant PKC βII; purchased Invitrogen GmbH, Darmstadt, Germany
Nature of the assay: Determination of PKC βII inhibition (Caliper mobility shift kinase assay). Type of assay: biochemical. The note with it: final compound concentration 1.14 μM (±0.15 μM); 60 min incubation at 32° C. The method, then:
Determination of PKC βII Inhibition
PKC βII inhibition was determined according to the following protocol:
Active human full-length recombinant PKC βII and the peptide substrate, Fluorescein-RFARKGSLRQKNV, were purchased from Invitrogen GmbH, Darmstadt, Germany. Adenosine-5′-triphosphate (ATP), bovine serum albumine (BSA), dimethylsulphoxide (DMSO), 4-(2-hydroxyethyl)piperazine-1-ethanesulfonic acid (Hepes), Triton X-100, 1,2-Dioleoyl-sn-glycerol (DAG), L-α-Phosphatidyl-L-serine (PS), calcium chloride (CaCl2), and Pluronic F-68 were purchased from Sigma-Aldrich, Munich, Germany. Magnesium chloride, 1 M sodium hydroxide solution, 1M hydrochloric acid solution and EDTA were obtained from Merck Biosciences, Darmstadt, Germany.
Test compounds were diluted to three times the test concentration in buffer 1 (30 mM Hepes-NaOH, pH 7.4, 0.01% Pluronic F-68 and 3% (v/v) DMSO). The […] enzyme was diluted to a concentration of 30 ng/ml in buffer 2 (30 mM Hepes-NaOH, pH 7.4, 15 mM MgCl2, 150 μM CaCl2, 150 μg/ml PS, 60 μg/ml DAG, and 0.045% (w/v) Triton X-100). The peptide substrate and ATP were diluted to concentrations of 3 μM and 120 μM, respectively, in buffer 2. Two μl of the compound solution were mixed with 2 μl of the diluted enzyme in a 384-well small volume microtiter plate (Greiner, Bio-One, Frickenhausen, Germany), and the kinase reaction was initiated by addition of 2 μl of the solution containing peptide substrate and ATP. After 60 min incubation at 32° C., the reaction was stopped by addition of 20 μl of a solution containing 130 mM Hepes-NaOH, pH 7.4, 0.0195% (v/v) Brij-35, 6.5 mM EDTA, 0.13% chip coating reagent 3 (Caliper Lifescience Inc, Hopkinton, Mass.) and 6.5% (v/v) DMSO. Phosphorylation of the substrate peptide was then detected on a Caliper 3000 instrument essentially as described by Pommereau et al (J. Biomol. Screening 2004, 9(5), 409-416). Separation conditions were as follows: Pressure −0.8 psi, upstream voltage −3000 V, downstream voltage −800 V. Positive controls (buffer 1 instead of compound) and negative controls (buffer 1 instead of compound and buffer 2 instead of kinase solution) were run in parallel on each plate. Fractional turnover (R) was determined as the height of the peak of the phosphorylated peptide product divided by the sum of the unphosphorylated substrate and phosphorylated product peak heights. Percent-inhibition values for the test compounds were determined using the formula % Inhibition=100*(1−(Rcompound−Rnegative control)/(Rpositive control−Rnegative control).
In the following table % inhibition values observed with example compounds at a final concentration of 1.14 μM (±0.15 μM) are listed: […]
As to `Cc1n[nH]c2nc(-c3ccc(O)cc3F)cc(CN3C[C@@H](C)NCC3(C)C)c12` [Example 116, 3-Fluoro-4-[3-methyl-4-((R)-2,2,5-trimethyl-piperazin-1-ylmethyl)-1H-pyrazolo[3,4-b]pyridin-6-yl]-phenol], the inhibition (as a rule, the relative decrease from the control value, in per cent) at 1.14 µM was 95%. Next, `CCC1(C)CN(Cc2cc(-c3ccc(O)cc3F)nc3[nH]nc(C)c23)C(C)(C)CN1` (stereo not shown) [Example 21, 4-[4-(5-Ethyl-2,2,5-trimethyl-piperazin-1-ylmethyl)-3-methyl-1H-pyrazolo[3,4-b]pyridin-6-yl]-3-fluoro-phenol]: 93%; `Cc1n[nH]c2nc(-c3ccc(O)cc3F)cc(CN3C[C@H](C(C)C)NCC3(C)C)c12` [Example 129, 3-Fluoro-4-[4-((S)-5-isopropyl-2,2-dimethyl-piperazin-1-ylmethyl)-3-methyl-1H-pyrazolo[3,4-b]pyridin-6-yl]-phenol]: 97%; `Cc1n[nH]c2nc(-c3ccc(O)cc3)cc(CN3CC4(CCCC4)NCC3C)c12` (stereo not shown) [Example 33, 4-[3-Methyl-4-(8-methyl-6,9-diaza-spiro[4.5]dec-9-ylmethyl)-1H-pyrazolo[3,4-b]pyridin-6-yl]-phenol]: 93%. Consider `Cc1n[nH]c2nc(-c3ccc(O)cc3F)cc(CN3CCNCC3(C)C)c12` [Example 26, 4-[4-(2,2-Dimethyl-piperazin-1-ylmethyl)-3-methyl-1H-pyrazolo[3,4-b]pyridin-6-yl]-3-fluoro-phenol], for which the inhibition at 1.14 µM is 92%. Next, `CCC1(CC)CNC(C)(C)CN1Cc1cc(-c2ccc(O)cc2)nc2[nH]nc(C)c12` [Example 51, 4-[4-(2,2-Diethyl-5,5-dimethyl-piperazin-1-ylmethyl)-3-methyl-1H-pyrazolo[3,4-b]pyridin-6-yl]-phenol]: 98%.

Take `CC[C@@H]1CN(Cc2cc(-c3ccc(O)cc3F)nc3[nH]nc(C)c23)[C@@H](C)CN1` [Example 30, 4-[4-((2S,5R)-5-Ethyl-2-methyl-piperazin-1-ylmethyl)-3-methyl-1H-pyrazolo[3,4-b]pyridin-6-yl]-3-fluoro-phenol]: the inhibition at 1.14 µM is 97%. As to `Cc1n[nH]c2nc(-c3ccc(O)cc3F)cc(CN3C[C@@](C)(C4CC4)NCC3(C)C)c12` [Example 149, 4-[4-((R)-5-Cyclopropyl-2,2,5-trimethyl-piperazin-1-ylmethyl)-3-methyl-1H-pyrazolo[3,4-b]pyridin-6-yl]-3-fluoro-phenol], the inhibition at 1.14 µM was 98%. Next, `CCC1(C)CNC(C)(C)CN1Cc1cc(-c2ccc(O)cc2)nc2[nH]nc(C)c12` (stereo not shown) [Example 50, 4-[4-(2-Ethyl-2,5,5-trimethyl-piperazin-1-ylmethyl)-3-methyl-1H-pyrazolo[3,4-b]pyridin-6-yl]-phenol]: 96%; `Cc1n[nH]c2nc(-c3ccc(O)cc3)cc(CN3C[C@H](C)NCC3(C)C)c12` [Example 131, 4-[3-Methyl-4-((S)-2,2,5-trimethyl-piperazin-1-ylmethyl)-1H-pyrazolo[3,4-b]pyridin-6-yl]-phenol]: 103%; `Cc1n[nH]c2nc(-c3ccc(O)cc3F)cc(CN3CC(C)(C)NC[C@@]3(C)C3CC3)c12` [Example 126, 4-[4-((R)-2-Cyclopropyl-2,5,5-trimethyl-piperazin-1-ylmethyl)-3-methyl-1H-pyrazolo[3,4-b]pyridin-6-yl]-3-fluoro-phenol]: 91%. Take `Cc1n[nH]c2nc(-c3ccc(O)cc3F)cc(CN3C[C@H](c4ccccc4)NC[C@H]3C)c12` [Example 100, 3-Fluoro-4-[3-methyl-4-((2R,5S)-2-methyl-5-phenyl-piperazin-1-ylmethyl)-1H-pyrazolo[3,4-b]pyridin-6-yl]-phenol]: the inhibition at 1.14 µM amounted to 86%. Next, `Cc1n[nH]c2nc(-c3ccc(O)cc3F)cc(CN3C[C@H](C)NCC3(C)C)c12` [Example 115, 3-Fluoro-4-[3-methyl-4-((S)-2,2,5-trimethyl-piperazin-1-ylmethyl)-1H-pyrazolo[3,4-b]pyridin-6-yl]-phenol]: 94%.
